# Target: T1, Fatty-acid amide hydrolase 1 [30-579] (Rattus norvegicus, UniProt P97612)
# T1 construct: 30-579
# T1 sequence (P97612 whole entry): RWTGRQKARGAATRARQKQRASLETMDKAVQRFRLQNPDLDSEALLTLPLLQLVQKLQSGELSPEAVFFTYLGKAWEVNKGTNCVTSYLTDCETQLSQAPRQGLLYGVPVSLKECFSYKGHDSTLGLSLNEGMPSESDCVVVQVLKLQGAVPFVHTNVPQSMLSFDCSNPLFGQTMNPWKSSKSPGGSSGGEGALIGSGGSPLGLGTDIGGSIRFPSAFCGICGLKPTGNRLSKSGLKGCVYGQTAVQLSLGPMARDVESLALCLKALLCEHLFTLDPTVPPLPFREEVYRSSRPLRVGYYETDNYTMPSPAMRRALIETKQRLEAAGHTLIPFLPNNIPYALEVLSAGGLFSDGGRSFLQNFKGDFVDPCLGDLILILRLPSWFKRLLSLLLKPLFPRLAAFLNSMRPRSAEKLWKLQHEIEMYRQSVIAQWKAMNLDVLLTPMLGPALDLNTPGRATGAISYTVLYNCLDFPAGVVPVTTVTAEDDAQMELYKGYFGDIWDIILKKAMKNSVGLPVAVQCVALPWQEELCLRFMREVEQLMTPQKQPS
# Experiment: Enzyme-coupled Assay
# Description: Enzyme-coupled assay using oleamide as substrate where stoichiometic quantites of NAD are formed upon the generation of ammonia from oleamide by FAAH hydrolysis.
structure (smiles),measurement,value
"O=C(Nc1cccnc1)N1CCC(Cc2cccc(Oc3ccc(C(F)(F)F)cn3)c2)CC1 [PF-3845, 10]",Ki,230 nM

# Reference: BindingDB's records for doi:10.1016/j.chembiol.2009.02.013 (Pfizer, 2009)
